{
  "source": "patent US20250018002A1",
  "about": "“Gap Junction Modulators and Their Use for the Treatment of Age-Related Macular Degeneration” (Breye Therapeutics APS, priority 2021, published 2025)",
  "key": {"[1]": {"tested_on": "Human retinal pigment epithelial cells (ARPE-19)", "test": "Tight junction organization rate (TiJOR), anti-ZO-1 immunocytochemistry in stressed ARPE-19 monolayers", "type": "cell-based", "settings": "danegaptide 100 nM, 24 h pre-treatment, then 48 h 30 mM glucose + sublethal tBHP; n=13-16", "procedure": "For immunocytochemistry, ARPE-19 cells were grown to confluency in chamber slides for 72 h. Cells were then be pre-treated with Danegaptide (DGP; 100 nM) or vehicle control for 24 h. Subsequently, cells were challenged with a combination of sublethal oxidative stress (250 μM tert-butyl hydroperoxide; Millipore Sigma, St. Louis, MO) and hyperglycemia (30 mM glucose; Millipore Sigma, St. Louis, MO) for 48 h, in the continued presence of 100 nM DGP or vehicle.\nCells were labelled with anti-ZO-1 antibody (mouse anti-human 70-1, […], cat #339100, Invitrogen, Thermo Fisher Scientific, Carlsbad, CA) in antibody solution (3% normal goat serum, 1% bovine serum albumin, 0.5% Triton X-100, 0.05% sodium azide in 0.1 M Phosphate buffer pH 7.4) for 2 h at room temperature. […]\nThe tight junction organization rate (TiJOR) was calculated from confocal images, as described previously (Terryn et al., 2013). […]\nTight junction organization was assessed by immunocytochemistry using anti-zonula occludens 1 (ZO-1) immunostaining (bottom images of FIG. 2; that is, FIG. 2B), a major component of Tight Junctions that binds the cytoplasmic domain of both the Gap Junction transmembrane protein, Cx43, and the TJ transmembrane proteins, occludin(s) and claudin(s). The Tight Junction organization index (TiJOR) was calculated according to Terryn et al., 2013 and measures the degree of TJ dependent cell-cell coupling."}, "[2]": {"tested_on": "STZ-induced DR in the Brown Norway rat", "test": "SD-OCT retinal thickness in STZ-induced diabetic retinopathy", "type": "in vivo", "settings": "week 9 after STZ", "procedure": "(§1) Diabetes was induced in the Brown Norway rats (aged 9-10 weeks) by a single dose of streptozotocin (STZ; 65 mg/kg. Sigma) in 10 mM sodium citrate buffer, pH 4.5. After the STZ injection, rats were placed in their cages with ad libitum food and 10% (w/v) sucrose solution in tap water for 48 h. The next morning, 5% glucose (1 ml) was injected intraperitoneally or subcutaneously to all induced rats. Four days after the first STZ injection, the success of the induction was monitored by measuring the blood glucose levels from the saphenous vein. The induction of diabetes was considered successful when the blood glucose values measured by the rapidmeter were equal or higher than 16 mmol/l (288 mg/dl). Animals that were not diabetic based on this criterion 96 h after the first STZ injection received a second STZ injection.\n(§2) The selected rats were monitored for blood glucose levels and animal health for 6 weeks, and then treated with weekly intravitreal (IVT) injections of vehicle or test compounds for three weeks for a total of 3× IVT eye injections per eye per animal.\n(§3) For IVT treatment administration, the animals were anesthetized animals, placed under a stereoscope (Leica Microsystems), and a drop of iodine was applied on the cornea and allowed to spread evenly (Minims Povidone lodine 5%, Bausch & Lomb). A small incision in the […] exposing the vitreous chamber was performed using a 30 G needle near the limbus. A microsyringe with a 33G needle (Hamilton Bonaduz AG, Bonaduz) attached was used to inject the compounds into the intravitreal space. The test solution was injected into the intravitreal space for 10 s, the needle was kept in place for additional 30 s before being removed to avoid the reflux of the compound. Chloramphenicol ointment was applied after the injection (Oftan Chlora, Santen Oy). The different treatments were administered three times by bilateral intravitreal administration of a volume of 5 μl at weeks six, seven, and eight after STZ induction.\nAnesthetized rats were imaged with SD-OCT (Envisu R2200. Bioptigen Inc./Leica Microsystems) retinal scan at week nine as shown in FIG. 5C. The scanned area covers a 2.4×2.4 mm^2 of the retina centred around the optic nerve. Each scan is composed of 100 B Scans each one composed of 1000 A Scans. SD-OCT was performed on both eyes at week nine after DR induction prior to sacrifice and sampling.\nThe retinal thickness at week nine was analyzed by a convolutional neural network based on U-net architecture using transfer learning approach. The resulting segmentation masks were used to measure the layer thickness in each pixel-width column, i.e. a-scan, resulting in 1000 measuring points for each layer per one b-scan. Only measuring points that passed the automatic quality control criteria set were used in the calculations. The thickness results were presented as SD-OCT measurements of the inner retina, including the nerve ganglion cell layer, inner plexiform and inner nuclear layers; and the outer retina, including the outer plexiform layer, outer nuclear layer, inner and outer segment, and RPE/choroid. […] See FIGS. 5, 7 and 8 for the results of SD-OCT.\nSD-OCT scans were taken at week nine prior to sampling. The retinal scans were segmented, and the thickness was analyzed by a convolutional neural network algorithm.\nOuter retinal thickness was quantified from SD-OCT images from 24 locations to generate a mean thickness of outer retinal thickness. Outliers were removed using the GROUT method (Q=1%), leading to the removal of a total of 5 outliers (naïve: 0, STZ+Vehicle: 1; STZ+AF564: 1; STZ+Danegaptide: 1; STZ+AF564+Danegaptide: 2).\nSD-OCT scans were taken at week nine prior to sampling. Retinal scans were segmented and the thickness was analyzed by a convolutional neural network algorithm. Inner retinal thickness was analyzed by region (FIG. 8)."}, "[3]": {"tested_on": "STZ-induced DR in the Brown Norway rat", "test": "Evans Blue retinal extravasation (vascular leakage) in STZ-induced diabetic retinopathy", "type": "in vivo", "settings": "week 9 after STZ, 3 weekly IVT injections", "procedure": "as §1, with “Animals that were not diabetic based on this criterion 96 h after the first STZ injection received a second STZ injection.” left out\nThe selected rats were monitored for blood glucose levels and animal health for 6 weeks, and then treated with weekly intravitreal (IVT) injections of vehicle or test compounds for three weeks for a total of 3× IVT eye injections per eye per animal. […]\nRetinas were homogenized in formamide in a 1:10 ratio (w/v) and incubated overnight at +70°. […] Absorbance (λ=620 nm) of the samples was measured using a plate reader (Cytation 3, BioTek Instruments Inc., Winooski, VT) and the concentration of Evans Blue in each sample was calculated against a standard curve of Evans Blue and normalized to tissue weight. […]"}, "[4]": {"tested_on": "STZ-induced DR in the Brown Norway rat", "test": "PAS staining of trypsin-digested retinal flat mounts: pericytes, pericyte ghosts, acellular capillaries", "type": "in vivo", "settings": "week 9 after STZ", "procedure": "as §1, §2\nFor IVT treatment administration, the animals were anesthetized animals, placed under a stereoscope (Leica Microsystems), and a drop of iodine was applied on the cornea and allowed to spread evenly (Minims Povidone lodine 5%, Bausch & Lomb). […]\nFour to six individual images obtained from a central area, and from a peripheral area of the retinal vasculature were acquired using a Leica Thunder 3D Tissue Imager (Leica Microsystems). The number of acellular capillaries, the number of pericytes and the number of pericyte ghosts were manually counted by an investigator blinded to the experimental group assignment.\nVascular abnormalities and the effect of induction of DR by STZ induction were also assessed by quantification of acellular capillaries, pericytes and pericyte ghosts on trypsin-digested retinal wholemounts. For quantification, 4-15 individual images were quantified for each animal and the data from each image were included in the analysis.\nSubsequently, number of pericyte ghosts was quantified."}, "Brown Norway rats": {"tested_on": "Brown Norway rats", "test": "Tolerability, macroscopic ophthalmic examinations after IVT injections", "type": "in vivo", "settings": "bilateral IVT 5 μl, three weekly injections", "procedure": "as §3\nSTZ-induced cataracts are common in this model and developed moderate severity by the end of the study (FIG. 4). All test articles were well-tolerated, and no signs of ocular toxicity were identified by macroscopic ophthalmic examinations. Test articles exerted no differential effects on cataract development (FIG. 4)."}, "kidney epithelial cells": {"tested_on": "kidney epithelial cells", "settings": "Squires et al., 2021; cited from earlier work"}, "[5]": {"settings": "3 weekly IVT injections, SD-OCT"}, "[6]": {"settings": "3 weekly IVT injections, average per group"}},
  "note": "“Also recorded” adds a separate entry of the source.",
  "data": [
    {"smiles": "NCC(=O)N1C[C@H](NC(=O)c2ccccc2)C[C@H]1C(=O)O", "note": "[Danegaptide, (2S,4R)-1-(2-aminoacetyl)-4-benzoylamino-pyrrolidine-2-carboxylic acid]", "values": [
      {"measurement": "Protection against loss of Tight Junction organization (TiJOR)", "setting": "[1]", "value": "completely protected; also recorded: partial protection"},
      {"measurement": "Total retinal thickness, IN", "setting": "[2]; [5]", "value": "206 ± 1.8", "unit": "μm"},
      {"measurement": "Total retinal thickness, IT", "setting": "[2]; [5]", "value": "217 ± 1.6", "unit": "μm"},
      {"measurement": "Total retinal thickness, SN", "setting": "[2]; [5]", "value": "205 ± 1.9", "unit": "μm"},
      {"measurement": "Total retinal thickness, ST", "setting": "[2]; [5]", "value": "210 ± 2.6", "unit": "μm"},
      {"measurement": "Total retinal thickness, Whole Retina", "setting": "[2]; [5]", "value": "212 ± 2.2", "unit": "μm"},
      {"measurement": "Outer retinal thickness, IN (inferior-nasal)", "setting": "[2]; [6]", "value": 121.17, "unit": "μm"},
      {"measurement": "Outer retinal thickness, IT (inferior-temporal)", "setting": "[2]; [6]", "value": 123.61, "unit": "μm"},
      {"measurement": "Outer retinal thickness, SN (superior-nasal)", "setting": "[2]; [6]", "value": 117.36, "unit": "μm"},
      {"measurement": "Outer retinal thickness, ST (superior-temporal)", "setting": "[2]; [6]", "value": 118.14, "unit": "μm"},
      {"measurement": "Effect on inner retinal thickness", "setting": "[2]; regional analysis ST, SN, IT, IN", "value": "No biologically relevant effects"},
      {"measurement": "Outer retinal thickness (mean)", "setting": "[2]; weekly IVT injections at weeks 6, 7, 8, mean±S.E.M., STZ+Vehicle 123.8±0.9, naïve 119.8±0.5", "value": "119.7±0.8", "unit": "μm"},
      {"measurement": "Reduction of EB extravasation vs STZ+Vehicle", "setting": "[3]", "value": 68.9, "unit": "%"},
      {"measurement": "Evans Blue (EB) extravasation, % of STZ+Vehicle", "setting": "[3]; normalized to STZ+Vehicle, mean±S.E.M.", "value": "31.1±5.3", "unit": "%"},
      {"measurement": "Effect on number of pericyte ghosts vs STZ+Vehicle", "setting": "[4]; One-Way ANOVA, Dunnett's test", "value": "statistically significant reduction"},
      {"measurement": "Acellular capillaries (number)", "setting": "[4]; count per image, STZ+Vehicle 22 ± 1", "value": "20 ± 1"},
      {"measurement": "Pericytes (sum of the number of pericytes and pericyte ghosts)", "setting": "[4]; count per image, STZ+Vehicle 52 ± 2", "value": "49 ± 2"},
      {"measurement": "Tolerability / ocular toxicity", "setting": "Brown Norway rats", "value": "well tolerated"},
      {"measurement": "ATP leakage from kidney epithelial cells", "setting": "kidney epithelial cells", "value": "can reduce ATP leakage"}
    ]}
  ]
}
